A short description of this data set: Particle size distribution by Malvern particle sizer (dry powder). The format is physicochemical. The method, then: The particle size distributions of these powdered materials indicate both the level of size reduction obtained by the co-milling, and the level of dispersion efficiency at varied pressures. The d(50) and d(97) plots provide a further indication of this dispersibility of the powders as a function of pressure.
Particle size distributions of the raw materials and selected formulations were determined by Malvern particle sizer, via the Scirroco dry powder disperser.
Twelve formulations were produced from the original powder, using the Hosokawa AS50 jet mill. Either the pure drug was passed through the mill or a blend of drug with 5% w/w of a force control agent added. The mill was used with a range of parameters. Primarily, these were injector air pressure, grinding air pressure and powder feed rate.

Take `CN1C(=O)CC(=O)N(c2ccccc2)c2cc(Cl)ccc21` [clobozam]: the “d(50)” value reads like this: (clobozam after co-jet milling) “about 1 μm”; (clobozam before co-jet milling) “about 2.6 μm”.

For the origin of these results see US11103448B2, “Manufacture of pharmaceutical compositions” (VECTURA LIMITED, priority 2003, dated 2021).
